The text below walks through data of US7615361B2, “Toxicity screening methods” (Ceetox, Inc., priority 2006, dated 2009).

Data set [1] is described as follows: Solubility in culture medium (nephelometry). The format is physicochemical. How it is done:
Solubility: The test compounds were prepared in DMSO and the appropriate amounts were then added to complete medium containing 10% bovine serum […] at 37° C. The samples were evaluated using a light scattering technique and a Nephaloskan instrument.
Solubility Assay: The test compounds were prepared in DMSO and the appropriate amounts were then added to complete medium containing 10% bovine serum at 37° C. The samples were evaluated using a light scattering technique and a Nephaloskan instrument.

A further data set relates to P-glycoprotein (PgP). In words: P-glycoprotein (PgP) binding: MTT with and without cyclosporin A. The format is cell-based, rat. Particulars: H4IIE 24 HR; for % Control (Compound + CSA) / % Control (Compound): MTT, 50 μM; for % Control (Compound + CSA): with cyclosporin A; for % Control (Compound): without CSA; for % Difference: 1-20% low, 20-50% moderate, 50-100% high PgP interaction. Here is the method:
Several antiviral drugs are substrates for P-glycoprotein transporter (PgP).
P-glycoprotein (PgP) transport proteins are expressed in the bile canalicular membrane of normal liver. However, in neoplastic cells it is not uncommon to have expression of this transporter system in the plasma membrane. […] The existence of these transporters was evaluated with the Calcein-AM assay and with known substrates of PgP.

Another data set is described as follows: MTT reduction. As to conditions: rat. The format is cell-based, rat. In short, it runs like this:
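Rat hepatoma H4IIE cells exposed to compound prepared in complete culture medium, with tetrazolium dye (MTT) reduction used as a mitochondrial-function read-out of cytotoxicity. Values are means of each exposure group (n=3-7).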
Background: Formazan colour is commonly taken as a measure of viable cells.

A further data set concerns H4IIE cells. In words: Membrane lipid peroxidation (8-isoprostane ELISA). The format is cell-based, rat. An outline of the steps:
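Rat hepatoma H4IIE cells exposed to test compound prepared in complete culture medium; cells or supernatant harvested for oxidative-stress endpoints. Camptothecin and rotenone served as positive controls; group means from n=3-7.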
In general terms: ELISA stands for enzyme-linked immunosorbent assay.

A short description of data set [2]: MemTox membrane leakage (AK / α-GST). As to conditions: rat. The format is cell-based, rat. In short, it runs like this: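 H4IIE rat hepatoma cells were exposed to compound diluted in complete culture medium. Leakage of adenylate kinase (luminescence) and/or α-GST (ELISA, 450/650 nm) was measured in the medium collected at the end of exposure. Percent live cells was computed relative to 1 mM digitonin-treated maximum release, as means of n=3-7.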

Data set [3] is described as follows: Intracellular ATP levels. The format is cell-based, rat. An outline of the steps:
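Neonatal rat cardiomyocytes exposed to the compound; cellular ATP measured by luciferin/luciferase luminescence after lysis with an ATPase-inhibiting reagent, quantified against an ATP calibration curve in matching matrix (pmol ATP/million cells). Background-corrected luminescence expressed as percent of control; means of n=3-7.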

The nature of data set [4]: Intracellular ATP levels. Particulars: rat. The format is cell-based, rat. An outline of the steps:
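Rat hepatoma H4IIE cells exposed to compound in complete culture medium, n=3-7 per group. ATP measured by luciferin-luciferase luminescence after lysis with ATPase-inhibiting reagent, quantified against an ATP calibration curve as pmoles ATP/million cells. Results expressed as percent of control from background-corrected luminescence.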

Data set [5] in a line: Intracellular total glutathione (GSH). The format is cell-based, rat. As to conditions: rat. In short, it runs like this: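 Rat hepatoma H4IIE cells were exposed to compound in dosing solutions made in complete culture medium, then harvested for biochemical measurement of intracellular total glutathione as an oxidative-stress marker. Values are exposure-group means, n=3-7.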

The subject of another data set is rat cardiomyocytes. The data set can be described thus: Membrane lipid peroxidation (8-isoprostane ELISA). The format is cell-based. In short, it runs like this: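 Neonatal rat cardiomyocytes exposed to the test compound, then cells or supernatant harvested for biochemical analysis of oxidative stress. Values are means of each exposure group (n=3-7).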
Setting [6] is: H4IIE rat hepatoma cells, H4IIE, 24 HR exposure, read-out: MTT TC50.
The mark [7] stands for this setting: H4IIE rat hepatoma cells, H4IIE, 24 HR exposure, read-out: MemTox TC50.
Setting [8] is: neonatal rat cardiomyocytes, rat cardiomyocytes (CM), 24 HR exposure, read-out: ATP TC50.
Where [9] appears, read: H4IIE rat hepatoma cells, H4IIE, 24 HR exposure, read-out: ATP TC50.
[10] abbreviates: H4IIE rat hepatoma cells, H4IIE, 24 HR, read-out: Total GSH TC50.
[11] abbreviates: 37 °C, plasma or biological fluid, kinetic from dmso stock, dosing medium with 20% serum, 37° C., H4IIE 24 HR, read-out: Highest Soluble Concentration Tested.
The mark [12] stands for this setting: dosing medium with 20% serum, 37° C., CM 24 HR, read-out: Highest Soluble Concentration Tested.

Structures are written as SMILES. In brackets after ≈: the same amount, converted by molar mass. Read-outs that look alike come from different tables or passages of the source.

In the case of `COc1cccc2c1C(=O)c1c(O)c3c(c(O)c1C2=O)C[C@@](O)(C(=O)CO)C[C@@H]3O[C@H]1C[C@H](N)[C@H](O[C@@H]2CCCCO2)[C@H](C)O1` [PIRARUBICIN, pirarubicin], the solubility in data set [1] (plasma or biological fluid, kinetic from dmso stock, dosing medium with 20% serum, 37° C., CM 24 HR, read-out: Highest Soluble Concentration Tested) worked out at 50 µM (≈ 31.4 µg/mL). In the data set with P-glycoprotein (PgP), the “% Control (Compound + CSA)” value amounted to 33.6%. Moreover, the “% Control (Compound)” value in the data set on P-glycoprotein (PgP) was determined as 51.9%. Besides, the “% Difference” value in the data set with P-glycoprotein (PgP) turned out to be 35.2%. In addition, the CC50 at 24 h came out at 16 µM in “MTT reduction” (setting [6]); 50 µM in data set [2] (setting [7]); 7 µM in the data set “Intracellular ATP levels [3]” (setting [8]); 8 µM in “Intracellular ATP levels [4]” (setting [9]); 17 µM in [5] (setting [10]). Moreover, the “Membrane Lipid Peroxidation” value in the data set on H4IIE cells (H4IIE, 24 HR) is 0; in the data set on rat cardiomyocytes (CM, 24 HR), 0.

Regarding `C=C(C)[C@H]1Cc2c(ccc3c2O[C@@H]2COc4cc(OC)c(OC)cc4[C@@H]2C3=O)O1` [ROTENONE, Rotenone], the solubility in data set [1] (37 °C, plasma or biological fluid, kinetic from dmso stock, culture media containing 20% serum, NRK 6 HR, read-out: Highest Soluble Concentration) worked out at 10 µM (≈ 3.94 µg/mL); in data set [1] (37 °C, plasma or biological fluid, kinetic from dmso stock, culture media containing 20% serum, NRK 24 HR, read-out: Highest Soluble Concentration), 10 µM (≈ 3.94 µg/mL); in data set [1] (37 °C, plasma or biological fluid, kinetic from dmso stock, dosing medium with 20% serum, 37° C., CM 24 HR, read-out: Highest Soluble Concentration Tested), 100 µM (≈ 39.4 µg/mL); in data set [1] (setting [11]) it was 100 µM (≈ 39.4 µg/mL); in data set [1] (37 °C, plasma or biological fluid, kinetic from dmso stock, dosing medium, 37° C., C32 24 HR, read-out: Highest Soluble Concentration), 10 µM (≈ 3.94 µg/mL); in data set [1] (37 °C, plasma or biological fluid, kinetic from dmso stock, dosing medium, 37° C., HUVEC 24 HR, read-out: Highest Soluble Concentration) it was 10 µM (≈ 3.94 µg/mL). Also, the solubility was 100 µM (≈ 39.4 µg/mL) in data set [1] (37 °C, plasma or biological fluid, kinetic from dmso stock, dosing medium, 37° C., NHEM 24 HR, read-out: Highest Soluble Concentration); 100 µM (≈ 39.4 µg/mL) in data set [1] (37 °C, plasma or biological fluid, kinetic from dmso stock, dosing medium, 37° C., SK-MEL28 24 HR, run #2, read-out: Highest Soluble Concentration); 10 µM (≈ 3.94 µg/mL) in [1] (37 °C, plasma or biological fluid, kinetic from dmso stock, dosing medium, 37° C., SK-MEL28 24 HR, read-out: Highest Soluble Concentration); 100 µM (≈ 39.4 µg/mL) in [1] (37 °C, plasma or biological fluid, kinetic from dmso stock, dosing medium, 37° C., SK-MEL28 72 HR, run #2, read-out: Highest Soluble Concentration); 10 µM (≈ 3.94 µg/mL) in data set [1] (37 °C, plasma or biological fluid, kinetic from dmso stock, dosing medium, 37° C., human hepatocytes 24 HR, read-out: Highest Soluble Concentration). Also, the “% Control (Compound + CSA)” value with P-glycoprotein (PgP) worked out at 0.0%. Besides, the “% Control (Compound)” value in the data set with P-glycoprotein (PgP) is recorded as 0.0%. The CC50 at 24 h was 0.07 µM in the data set “MTT reduction” (H4IIE, 24 HR exposure, read-out: MTT TC50); 100 µM in [2] (H4IIE, 24 HR exposure, read-out: MemTox TC50); 8 µM in the data set “Intracellular ATP levels [3]” (rat cardiomyocytes (CM), 24 HR exposure, read-out: ATP TC50); 0.04 µM in “Intracellular ATP levels [4]” (H4IIE, 24 HR exposure, read-out: ATP TC50); 0.05 µM in data set [5] (H4IIE, 24 HR, read-out: Total GSH TC50). In addition, the “Membrane Lipid Peroxidation” value is given as 2 (2 = Concentration related increase with maximum values ≧15 pg/mL) in the data set with H4IIE cells (H4IIE, 24 HR) and 3 (3 = Concentration related increase with a maximum value ≧30 pg/mL) in the data set on rat cardiomyocytes (CM, 24 HR).

Consider `O=C1c2c(O)ccc(O)c2C(=O)c2c(NCCNCCO)ccc(NCCNCCO)c21` [MITOXANTRONE, mitoxantrone], for which the solubility in data set [1] (setting [12]) was 300 µM (≈ 133 µg/mL); in data set [1] (dosing medium with 20% serum, 37° C., H4IIE 24 HR, read-out: Highest Soluble Concentration Tested) it was 300 µM (≈ 133 µg/mL). Also, the “% Control (Compound + CSA)” value with P-glycoprotein (PgP) turned out to be 10.4%. Also, in the data set on P-glycoprotein (PgP), the “% Control (Compound)” value came out at 69.9%. In addition, in the data set on P-glycoprotein (PgP), the “% Difference” value is 85.1%. Also, the CC50 at 24 h is above 300 µM in “MTT reduction” (MTT TC50); above 300 µM in [2] (MemTox TC50); 2 µM in the data set “Intracellular ATP levels [3]” (rat); 5 µM in “Intracellular ATP levels [4]” (ATP TC50); 247 µM in data set [5] (Total GSH TC50). Also, the “Membrane Lipid Peroxidation” value with H4IIE cells (rat, 24 h) stood at 0; with rat cardiomyocytes (rat, 24 h) it was 0.

Consider `COc1cccc2c1C(=O)c1c(O)c3c(c(O)c1C2=O)C[C@@](O)(C(=O)CO)C[C@@H]3O[C@H]1C[C@H](N)[C@@H](O)[C@H](C)O1` [EPIRUBICIN, epirubicin], for which the figures for the solubility in data set [1] (setting [11]) and in data set [1] (setting [12]) were 100 µM (≈ 54.4 µg/mL) and 300 µM (≈ 163 µg/mL), respectively. Also, the “% Control (Compound + CSA)” value in the data set on P-glycoprotein (PgP) was 11.8%. Also, in the data set with P-glycoprotein (PgP), the “% Control (Compound)” value turned out to be 59.7%. Besides, the “% Difference” value in the data set on P-glycoprotein (PgP) came out at 80.3%. Further, the CC50 at 24 h in “MTT reduction” (MTT TC50) was found to be 81 µM; in data set [2] (MemTox TC50), 37 µM; in “Intracellular ATP levels [3]” (rat), 19 µM; in “Intracellular ATP levels [4]” (ATP TC50) it was 32 µM; in data set [5] (Total GSH TC50), 52 µM. Further, the “Membrane Lipid Peroxidation” value in the data set on H4IIE cells (rat, 24 h) was 0; in the data set with rat cardiomyocytes (rat, 24 h) it was 0.

With `CC[C@@]1(O)C(=O)OCc2c1cc1n(c2=O)Cc2cc3ccccc3nc2-1` [CAMPTOTHECIN, Camptothecin], the solubility turned out to be 50 µM (≈ 17.4 µg/mL) in data set [1] (culture medium with 20% serum, 37 °C, plasma or biological fluid, kinetic from dmso stock, culture media containing 20% serum, NRK 6 HR, read-out: Highest Soluble Concentration); 10 µM (≈ 3.48 µg/mL) in data set [1] (dosing (complete culture) medium with 20% serum, plasma or biological fluid, kinetic from dmso stock, dosing medium with 20% serum, 37° C., CM 24 HR, read-out: Highest Soluble Concentration Tested); 10 µM (≈ 3.48 µg/mL) in data set [1] (dosing medium (complete culture medium with serum), plasma or biological fluid, kinetic from dmso stock, dosing medium, 37° C., SK-MEL28 24 HR, read-out: Highest Soluble Concentration); 10 µM (≈ 3.48 µg/mL) in data set [1] (plasma or biological fluid, kinetic from dmso stock, dosing medium, 37° C., HUVEC 24 HR, read-out: Highest Soluble Concentration). Further, in the data set with P-glycoprotein (PgP), the “% Control (Compound + CSA)” value is reported as 26.0%. For the same molecule, in the data set on P-glycoprotein (PgP), the “% Control (Compound)” value is recorded as 23.6%. For the same molecule, the CC50 at 24 h in “MTT reduction” (setting [6]) was 1 µM; in data set [2] (setting [7]) it was above 300 µM; in the data set “Intracellular ATP levels [3]” (setting [8]), above 300 µM; in “Intracellular ATP levels [4]” (setting [9]), 1 µM; in data set [5] (setting [10]), 3 µM. Moreover, the “Membrane Lipid Peroxidation” value with H4IIE cells (H4IIE, 24 HR) is reported as 1 (1 = Modest increase with maximum values ≦15 pg/mL); with rat cardiomyocytes (CM, 24 HR), 0.
